What was measured:
[1] = tested on: protein targets of BPK-29 in NSCLC cells (H460); assay: ABPP-SILAC competition of BPK-29yne labeling in H460 cells, proteome-wide; format: cell-based, human; details: beyond targets mapped by isoTOP-ABPP
Procedure: (§1) Isotopically labeled H460 cell lines were generated as described above. Light and heavy cells were treated with compounds (20 μM) or DMSO, respectively, for 3 h, followed by labeling with the BPK-29yne (5 μM) for 30 min. Cells were washed once ice-cold PBS and lysed in 1% Triton 100-X dissolved in PBS with protease inhibitors (Sigma) by sonication. Lysate was adjusted to 1.5 mg ml^−1 in 500 μL. Samples were conjugated by CuAAC to Biotin-PEG4-azide (5 μL of 10 mM stocks in DMSO, final concentration=100 μM). CuAAC “click” mix contained TCEP, TBTA ligand and CuSO4 as detailed for isoTOP-ABPP sample preparation. Samples were further processed as detailed in: isoTOP-ABPP streptavidin enrichment and isoTOP-ABPP trypsin TEV digestion with the following exception: after overnight incubation at 37° C. with trypsin, tryptic digests were separated from the beads with Micro Bio-Spin columns (Bio-Rad) by centrifugation (1,000×g, 1 min). Beads were rinsed once with water (200 μL) and combined with tryptic digests. […]
(§2) The MS2 spectra data were extracted and searched using RAW Convertor and ProLuCID algorithm as described in isoTOP-ABPP peptide and protein quantification. […] Ratios of heavy/light (DMSO/test compound) peaks were calculated using in-house CIMAGE software. […] The mean R values and standard deviation for multiple biological experiments were calculated from the average ratios from each replicate. […]

GSTO1 = molecular target: T1, GSTO1 (Homo sapiens, UniProt P78417); assay: ABPP-SILAC BPK-29yne competition in H460 cells: GSTO1; format: cell-based; details: 20 μM
T1 construct: Isotopically labeled H460 cell lines were generated as described above; endogenous in cells; host or cells: H460 (SILAC-labelled)
T1 sequence (P78417 whole entry): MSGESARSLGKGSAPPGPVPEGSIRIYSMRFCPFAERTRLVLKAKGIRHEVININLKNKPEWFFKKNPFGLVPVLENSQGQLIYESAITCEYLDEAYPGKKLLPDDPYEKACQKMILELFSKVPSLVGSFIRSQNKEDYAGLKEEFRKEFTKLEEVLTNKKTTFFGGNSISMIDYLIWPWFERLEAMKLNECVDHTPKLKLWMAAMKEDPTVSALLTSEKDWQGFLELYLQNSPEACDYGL
Procedure: as §1, §2

[2] = tested on: CRY1, DEPDC1, and CPLX2 expression in KEAP1-WT H2009 cells; assay: Gene expression changes (qPCR) in KEAP1-WT NSCLC cells; format: cell-based, human

O=C(c1ccc(N2CCOCC2)cc1)N1CCCC(N(Cc2ccccc2)C(=O)CCl)CC1 (stereo not drawn) [BPK-29, N-benzyl-2-chloro-N-(1-(4-morpholinobenzoyl)azepan-4-yl)acetamide]
further proteins engaged, found with the BPK-29yne probe [1]: seven | BPK-29-competed BPK-29yne analysis (GSTO1): Yes (Competed defined as showing R value ≥ 2.5 at 20 μM of test compound) | gene expression changes (CRY1, DEPDC1, CPLX2) [2]: not observed
